Data taken from patent US8389532B2, “7-[2-[4-(6-fluoro-3-methyl-1,2-benzisoxazol-5-yl)-1-piperazinyl]ethyl]-2-(1-propynyl)-7H-pyrazolo-[4,3-E]-[1,2,4]-triazolo-[1,5-C]-pyrimidin-5-amine” (Merck Sharp & Dohme Corp., priority 2005, dated 2013).

Key:
[1] = tested on: haloperidol-induced catalepsy; test: Haloperidol-induced catalepsy in the rat; format: in vivo; conditions: @ 4 h, rats
Description: Haloperidol-Induced Catalepsy in the Rat Male Sprague-Dawley rats (Charles River, Calco, Italy) weighing 175-200 g are used. The cataleptic state is induced by the subcutaneous administration of the dopamine receptor antagonist haloperidol (1 mg/kg, sc), 90 min before testing the animals on the vertical grid test. For this test, the rats are placed on the wire mesh cover of a 25×43 plexiglass cage placed at an angle of about 70 degrees with the bench table. The rat is placed on the grid with all four legs abducted and extended (“frog posture”). The use of such an unnatural posture is essential for the specificity of this test for catalepsy. The time span from placement of the paws until the first complete removal of one paw (descent latency) is measured maximally for 120 sec. The selective A2A adenosine antagonists under evaluation are administered orally at doses ranging between 0.03 and 3 mg/kg, 1 and 4 h before scoring the animals.

6-OHDA lesioned rats = test: 6-OHDA lesion of the middle forebrain bundle in rats (contralateral turning with subthreshold L-DOPA); format: in vivo, rat; conditions: combined with sub-threshold L-DOPA
Description: 6-OHDA Lesion of the Middle Forebrain Bundle in Rats
Adult male Sprague-Dowley rats (Charles River, Calco, Como, Italy), weighing 275-300 g, are used in all experiments. The rats are housed in groups of 4 per cage, with free access to food and water, under controlled temperature and 12 hour light/dark cycle. The day before the surgery the rats are fasted over night with water ad libitum.
Unilateral 6-hydroxydopamine (6-OHDA) lesion of the middle forebrain bundle is performed according to the method described by Ungerstedt et al. (Brain Research, 1971, 6-OHDA and Cathecolamine Neurons, North Holland, Amsterdam, 101-127), with minor changes. Briefly, the animals are anaesthetized with chloral hydrate (400 mg/kg, ip) and treated with desipramine (10 mpk, ip) 30 min prior to 6-OHDA injection in order to block the uptake of the toxin by the noradrenergic terminals. Then, the animals are placed in a stereotaxic frame. The skin over the skull is reflected and the stereotaxic coordinates (−2.2 posterior from bregma (AP), +1.5 lateral from bregma (ML), 7.8 ventral from dura (DV) are taken, according to the atlas of Pellegrino et al (Pellegrino L. J., Pellegrino A. S. and Cushman A. J., A Stereotaxic Atlas of the Rat Brain, 1979, New York: Plenum Press). A burr hole is then placed in the skull over the lesion site and a needle, attached to a Hamilton syringe, is lowered into the left MFB. Then 8 μg 6-OHDA-HCl is dissolved in 4 μl of saline with 0.05% ascorbic acid as antioxidant, and infused at the constant flow rate of 1 μl/1 min using an infusion pump. The needle is withdrawn after additional 5 min and the surgical wound is closed and the animals left to recover for 2 weeks.
Any rat not showing at least 200 complete turns/2 h is not included in the study.
Selected rats receive the test drug 3 days after the priming test (maximal dopamine receptor supersensitivity).

haloperidol-induced EPS = test: EPS assay in haloperidol-sensitized Cebus apella monkeys; format: in vivo; conditions: 30 mg/kg co-administered with haloperidol 0.3 mg/kg
Description: A test compound is administered orally (p.o.) at a dose ranging from 0.3-30 mg/kg, in conjunction with haloperidol. The studies are conducted using a within-subjects design such that each monkey receives all treatments (vehicle and doses of test compound) in a crossover, balanced design. The reduction in the maximum EPS score, as well as the dose-dependent delay in the onset of EPS are determined. In the EPS assay, four haloperidol-sensitized monkeys were co-administered the compound of formula I (30 mg/kg) and haloperidol (0.3 mg/kg) in a banana. A scoring system to rate the severity of each symptom was employed over a 6 hour observation period.

[2] = target: T1, Human A2a Adenosine Receptor (Homo sapiens, UniProt P29274); test: Human adenosine A2a receptor competition binding assay; conditions: [3H]-SCH 58261 0.5 nM, human A2a membranes
T1 construct: purchased Perkin Elmer Life Sciences RBHA2AM
T1 sequence (P29274 whole entry): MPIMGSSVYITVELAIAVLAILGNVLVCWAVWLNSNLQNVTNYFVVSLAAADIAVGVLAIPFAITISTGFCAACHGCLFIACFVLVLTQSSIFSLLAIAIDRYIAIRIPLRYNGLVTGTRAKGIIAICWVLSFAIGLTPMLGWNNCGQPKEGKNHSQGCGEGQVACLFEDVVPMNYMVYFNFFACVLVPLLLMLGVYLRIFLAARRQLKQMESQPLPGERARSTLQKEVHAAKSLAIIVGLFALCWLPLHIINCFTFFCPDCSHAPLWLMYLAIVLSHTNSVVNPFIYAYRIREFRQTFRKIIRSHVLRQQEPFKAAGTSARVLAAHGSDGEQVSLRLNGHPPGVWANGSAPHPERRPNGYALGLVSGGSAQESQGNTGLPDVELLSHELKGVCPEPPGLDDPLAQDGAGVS
Description: (§1) Human Adenosine A2a and A1 Receptor Competition Binding Assay Protocol
A2a: Human A2a Adenosine Receptor membranes, Catalog #RBHA2AM, Perkin Elmer Life Sciences, Shelton Conn. Dilute to 17 μg/100 μl in membrane dilution buffer (see below).
(§2) Membrane dilution buffer: Dulbecco's Phosphate Buffered Saline (Gibco/BRL)+10 mM MgCl2.
(§3) Compound Dilution Buffer: Dulbecco's Phosphate Buffered Saline (Gibco/BRL)+10 mM MgCl2 supplemented with 1.6 mg/ml methyl cellulose and 16% DMSO. Prepared fresh daily.
A2a: [3H]-SCH 58261, custom synthesis, AmershamPharmacia Biotech, Piscataway, N.J. Stock is prepared at 1 nM in membrane dilution buffer. Final assay concentration is 0.5 nM.
A2a: To determine non-specific binding, add 100 nM CGS 15923 (RBI, Natick, Mass.). Working stock is prepared at 400 nM in compound dilution buffer.
(§4) Prepare 1 mM stock solutions of compounds in 100% DMSO. Dilute in compound dilution buffer. Test at 10 concentrations ranging from 3 μM to 30 pM. Prepare working solutions at 4× final concentration in compound dilution buffer.
(§5) Perform assays in deep well 96 well plates. Total assay volume is 200 μl. Add 50 μl compound dilution buffer (total ligand binding) or 50 μl CGS 15923 working solution (A2a non-specific binding) or 50 μl NECA working solution (A1 non-specific binding) or 50 μl of drug working solution. Add 50 μl ligand stock ([3H]-SCH 58261 for A2a, [3H]-DPCPX for A1). […]

A1 receptor = target: T2, A1 receptor (Homo sapiens, UniProt P30542); test: Human adenosine A1 receptor competition binding assay (selectivity vs A2a); conditions: A1 ligand [3H]-DPCPX
T2 sequence (P30542 1-326): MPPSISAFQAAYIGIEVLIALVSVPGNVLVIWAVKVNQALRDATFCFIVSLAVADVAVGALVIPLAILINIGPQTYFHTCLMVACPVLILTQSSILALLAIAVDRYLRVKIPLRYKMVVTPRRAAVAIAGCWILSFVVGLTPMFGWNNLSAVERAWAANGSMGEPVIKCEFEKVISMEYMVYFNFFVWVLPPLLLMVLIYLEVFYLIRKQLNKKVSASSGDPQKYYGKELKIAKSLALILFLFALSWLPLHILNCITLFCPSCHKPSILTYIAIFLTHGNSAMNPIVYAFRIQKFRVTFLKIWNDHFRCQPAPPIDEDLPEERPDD
Description: as §1, §2, §3
A1: [3H]-DPCPX, AmershamPharmacia Biotech, Piscataway, N.J. Stock is prepared at 2 nM in membrane dilution buffer. Final assay concentration is 1 nM.
A1: To determine non-specific binding, add 100 μM NECA (RBI, Natick, Mass.). Working stock is prepared at 400 μM in compound dilution buffer.
as §4
as §5, with “A1). Add 100 μl of diluted membranes containing the appropriate receptor. Mix. Incubate at room temperature for 90 minutes.” for “A1).”
Selectivity is determined by dividing Ki for A1 receptor by Ki for A2a receptor. […]

A2a receptor = target: T3, A2a receptor (Rattus norvegicus, UniProt P30543); test: Ex vivo binding study to show duration of receptor occupancy (striatal homogenate, 3H-SCH 58261); format: in vivo; conditions: rats dosed 1 mg/kg; for receptor occupancy at 1 mg/kg: rat, 4 hours prior to sacrifice, read-out: decrease in 3H-SCH 58261 binding (receptor occupancy)
T3 construct: The A2a receptor-rich striatal nucleus was dissected and homogenized in buffer solution; from tissue; host or cells: rat striatum homogenate
T3 sequence (P30543 whole entry): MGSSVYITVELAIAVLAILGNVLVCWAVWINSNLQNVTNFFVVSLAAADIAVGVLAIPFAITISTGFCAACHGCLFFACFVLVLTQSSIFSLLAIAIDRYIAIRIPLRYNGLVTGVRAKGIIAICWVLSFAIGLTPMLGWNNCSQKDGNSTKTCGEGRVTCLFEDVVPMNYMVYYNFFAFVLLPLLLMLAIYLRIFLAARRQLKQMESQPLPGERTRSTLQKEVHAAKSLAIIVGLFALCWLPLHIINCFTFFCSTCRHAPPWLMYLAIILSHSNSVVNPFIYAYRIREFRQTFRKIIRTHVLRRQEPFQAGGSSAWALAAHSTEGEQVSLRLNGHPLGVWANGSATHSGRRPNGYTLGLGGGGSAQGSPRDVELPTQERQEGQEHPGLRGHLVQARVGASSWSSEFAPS
Description: Ex Vivo Binding Study to Show Duration of Receptor Occupancy:
Rats were dosed with 1 mg/kg of the compound of formula I and the compound of formula II (generically disclosed in U.S. Pat. No. 6,897,217)
[drawing 4] for 4, 8, 12, and 16 hours prior to sacrifice and removal of brains. The A2a receptor-rich striatal nucleus was dissected and homogenized in buffer solution. Striatal homogenate was incubated with the A2a antagonist radioligand ^3H-SCH 58261 (see WO 96/38728) prior to separation of bound and free radioactivity by filtration. Bound radioligand on filters was dried, soaked with scintillation fluid, and counted. Homogenates from striata of vehicle-treated rats treated with the same experimental conditions defined the quantity of bound radioligand in the absence of test compound.

SMILES | inhibition of catalepsy ([1]; 0.3 mpk orally) [%] | inhibition of catalepsy ([1]; 1 mpk orally) [%] | inhibition of catalepsy ([1]; 3 mpk orally) [%] | contralateral turning (6-OHDA lesioned rats; 0.1 mpk orally) [rotations] | contralateral turning (6-OHDA lesioned rats; 0.3 mpk orally) [rotations] | contralateral turning (6-OHDA lesioned rats; 1 mpk orally) [rotations] | contralateral turning (6-OHDA lesioned rats; 3 mpk orally) [rotations] | effect on haloperidol-induced EPS, three of four subjects (haloperidol-induced EPS; 6 hr observation period) | effect on haloperidol-induced EPS, fourth subject (haloperidol-induced EPS; compared with haloperidol alone) | Ki [2] [nM] | Selectivity (Ki for A1 receptor divided by Ki for A2a receptor) (A1 receptor) | receptor occupancy at 1 mg/kg (A2a receptor) [%] | displacement of radiolabel (3H-SCH 58261) (A2a receptor; 12 hours) [%] | 3H-SCH 58261 radioligand binding (receptor occupancy) (A2a receptor; 8 hours)
CC#Cc1nc2c3cnn(CCN4CCN(c5cc6c(C)noc6cc5F)CC4)c3nc(N)n2n1 [compound of formula I, 7-[2-[4-(6-fluoro-3-methyl-1,2-benzisoxazol-5-yl)-1-piperazinyl]ethyl]-2-(1-propynyl)-7H-pyrazolo-[4,3-e]-[1,2,4]-triazolo[1,5-c]pyrimidin-5-amine] | 28 | 47 | 53 | 218±142 | 406±167 | 360±178 | 403±125 | completely blocked haloperidol-induced EPS | delayed onset and reduced severity of EPS | 0.43 | greater than 2500 fold | 42 | 40 | 
CC#Cc1nc2c3cnn(CCN4CCN(c5cc(-c6noc(C)n6)ccc5F)CC4)c3nc(N)n2n1 [formula II, reference compound] |  |  |  |  |  |  |  |  |  |  |  | 47 |  | restored to near vehicle-treated levels
